Source: patent publication US9163018B2, “Method of treatment of age-related macular degeneration (AMD)” (Prana Biotechnology Limited, priority 2006, dated 2015)
Read-outs that look alike come from different tables or passages of the source.

Assays:
Aβ 1-42 = molecular target: T1, Aβ 1-42 (Homo sapiens, UniProt P05067); assay: Fluorometric H2O2 assay (inhibition of Abeta H2O2 production); format: biochemical; details: concentration required to inhibit 50% of Abeta H2O2 production; read-out: H2O2 IC50
T1 construct: The reaction solutions contained Aβ 1-42 at concentrations
Method in brief: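 Copper-dependent Aβ H2O2 production measured fluorometrically with deacetylated dichlorofluorescein plus HRP in PBS, pH 7.4. Incubation 60 min at 37 C, test compound included in wells. H2O2 quantified against H2O2 standards.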

[1] = test system: M17 human neuroblastoma cells; assay: Cytotoxicity, M17 human neuroblastoma cells; format: cell-based; details: for Cytotox (% viable) M17 cells at 1 μM: 1 μM test compound; for Cytotox (% viable) M17 cells at 10 μM: 10 μM test compound
Procedure: Assay 3. MTS Assay for Cell Viability
Cell viability is determined using the MTS assay. Culture medium is replaced with fresh neurobasal medium plus B27 supplements minus antioxidants. 1/10th volume MTS solution (Cell Titre 96 Aqueous One, Promega Corporation) and incubated at 37° C., 2 hrs. 200 microliter aliquots are measured with a spectrophotometer at 560 nm.

[2] = molecular target: T2, Abeta:Zn (25:50 μM) Synthetic Aggregations (Homo sapiens, UniProt P05067); assay: Disaggregation of Abeta:Zn synthetic aggregates (ThT fluorescence); format: biochemical; details: for Disaggregation % Aggregate reduction at 5 μM: 5 μM test compound; for EC50: Abeta:Zn 25:50 μM aggregates
T2 construct: PB Compound Mediated Dissolution of Aggregated Abeta 1-42; purchased Keck Laboratory, Yale University School of Medicine
Method in brief: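 Abeta1-42 (25 μM) with ZnCl2 (50 μM) and ThT (50 μM) in PBS pH 6.6 was preaggregated 24 h at 37 degrees with rotation. Aggregates were then exposed to compound (final 1-50 μM, DMSO) for 2 h at 37 degrees. ThT fluorescence was read at ex 450/em 480 nm.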

[3] = Mice plasma concentration after oral dose; format: in vivo; details: 30 min to 4 h after single or repeat oral dose of 30 mg/kg
[4] = mouse, in vivo, 10 days
[5] = test system: primary cortical neuronal cultured cells; assay: Test compound cytotoxicity, MTS assay, primary cortical neuronal cultures; format: cell-based, mouse
Method in brief: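 Primary cortical neurons were cultured five days in Neurobasal/B27, then exposed on day six to compounds (from 2.5 mM DMSO stocks) in medium minus antioxidants, in triplicate for 4 days at 37° C. Viability was measured by MTS, 2 h at 37° C, absorbance at 560 nm.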

[6] = test system: Abeta in extract of post-mortem human AD brain tissue; assay: BAS: human brain amyloid solubilization assay; format: biochemical; details: max effect across the concentration range, referenced to baseline PBS
Method in brief: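 Plaque-bearing post-mortem AD cortex homogenised in ice-cold PBS pH 7.4; soluble Aβ in 100,000×g supernatant, insoluble Aβ from resuspended pellet. Fractions run on Tris-Tricine SDS-PAGE, immunoblotted with W02, densitometry against synthetic Aβ40 standards.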

[7] = E Log D, chromatographic method; format: physicochemical; details: pH 7.4
Procedure: Effective Log D values were measured using a chromatographic method employing a SUPELCOSIL LC-ABZ column using an octanol saturated mobile phase at pH 7.4.

Aβ deposits = details: daily oral gavage 30 mg/kg, 9 weeks, 13-14 months old transgenic mice
[8] = test system: dityrosine oligomerization; assay: CuTy: inhibition of dityrosine oligomerization; format: biochemical; details: referenced to in-house standard (set as 100% inhibition)
[9] = Toxicity, visual observations in mice; details: 30 mg/kg; duration and visual observations

T2 sequence (P05067 672-713 limits assumed): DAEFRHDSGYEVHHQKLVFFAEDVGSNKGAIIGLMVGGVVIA
T1 sequence (P05067 672-713 limits assumed): as above

SMILES	IC50 (Aβ 1-42)	Cytotox (% viable) M17 cells at 1 μM [1]	Cytotox (% viable) M17 cells at 10 μM [1]	Disaggregation % Aggregate reduction at 5 μM [2]	EC50 [2]	Mice plasma concentration [3]	Toxicity at 30 mg/kg [4]	Cytotox (% viable) Neuronal cells at 1 μM ([5]; 1 μM test compound)	Cytotox (% viable) Neuronal cells at 10 μM ([5]; 10 μM test compound)	BAS max effect [6]	ElogD (E) [7]	Tg Mice % difference from control in Amyloid plaque abundance (Aβ deposits)	Tg Mice % difference from control in insoluble brain amyloid burden (Aβ deposits)	Tg Mice % difference from control in soluble brain amyloid burden (Aβ deposits)	CuTy % inhibition of dityrosine oligomerization [8]	Toxicity at 30 mg/kg [9]
CCn1cnc2c(O)c(I)ccc2c1=S [PB 1168]	400 nM	85.7%	43%	70%	1110 nM	Up to 400 ng/ ml ng/mL	10 days, none, 1/4 mild signs									
CCn1cnc2c(O)c(I)cc(Cl)c2c1=O [PB 1138]	300 nM	99.7%	68.2%	53%	4700 nM	Up to 1802 ng/ mL ng/mL	10 days, 2/4 deaths									
CCCCc1cnc2c(O)cccn2c1=S [PB 1148]	410 nM			70%	1550 nM	Up to 57 ng/ml ng/mL	7 days, 2/4 deaths									
CCCCc1cnc2c(O)c(I)ccn2c1=O [PB 1145]	660 nM	101.7%	58.7%	28%	7200 nM		10 days, 2/4 death									
O=C(NCCc1c[nH]cn1)c1ccc2c(Cl)cc(Cl)c(O)c2n1 [PB 1038]	260 nM			51.3%	4850 nM	Up to 2694 ng/ mL ng/mL		91%	84%	627%	2.92	Decrease	Decrease	Increase		
CCCCNC(=O)c1cnc2c(O)c(I)ccn2c1=O [PB 1160]	750 nM	85.3%	63.4%	56.8%	4050 nM	Up to 27,598 ng/mL						decrease	No change	−25%	CuTy: 95% inhibition	10 days, none
CC(C)c1cnc2c(O)c(I)ccn2c1=O [PB 1142]	370 nM	96.7%	44.2%	42%	7100 nM		10 days, 1/4 death									
